In patent publication US7550582B2, “Polyamide nucleic acid derivatives and agents, and processes for preparing them” (sanofi-aventis Deutschland GmbH, priority 2000, dated 2009):

Legend:
complementary DNA = assay: Determining the melting temperatures (complementary DNA); type: binding; conditions: for Tm (DNA): 140 mM KCl, 10 mM sodium dihydrogen phosphate, 0.1 mM EDTA (pH 7.4), oligomer 0.5 to 1 OD260 per ml; for degree of binding towards complementary DNA and RNA compared with the uncharged PNA (reference substance): melting temperature experiment
Description: (§1) The melting temperatures were determined using an HP 8452A diode-array spectrophotometer, an HP 89090A Peltier element and HP Temperature Control Software Rev. B5.1 (from Hewlett Packard). Measurements were taken in 0.5° C./min steps in 140 mM KCl, 10 mM sodium dihydrogen phosphate, 0.1 mM EDTA (pH 7.4) as the buffer. The oligomer concentration was from 0.5 to 1 OD260 per ml.

complementary RNA = assay: Determining the melting temperatures (complementary RNA); type: binding; conditions: 140 mM KCl, 10 mM sodium dihydrogen phosphate, 0.1 mM EDTA (pH 7.4); oligomer 0.5 to 1 OD260 per ml
Description: as §1

COS cells = assay: Determining cell uptake after fluorescence labeling; type: cell-based; conditions: PNA solution 10 μM, 37° C., examined after 2, 4 and 16 hours
Description: COS cells were allowed to grow to confluence in Dulbecco's MEM, which was supplemented with 10% FCS, in 5 cm Petri dishes. The cells were washed twice with serum-free DMEM. An area of approx. 1 cm^2 was scratched out in the middle of the Petri dish using a sterile needle. The PNA solution (10 μM) under investigation was applied in this area. The dish was incubated at 37° C. under a CO2 atmosphere. After 2, 4 and 16 hours, the cells were examined by fluorescence microscopy. For this, the cells were washed four times with serum-free DMEM, covered with a cover slip, and evaluated under the fluorescence microscope or by phase contrast. PNA-5 and PNA-6 were examined by fluorescence microscopy.

[1] = test system: REH cells (human pre-B leukemia cells, DSM ACC 22); assay: Inhibiting cell proliferation; type: cell-based; conditions: 10 μM, after >4 days of incubation
Description: The sequence of PNA-6 is directed against the translation start of the Ha-ras mRNA. REH cells (human pre-B leukemia cells, DSM ACC 22) or A549 tumor cells were cultured, at 37° C. and under 5% CO2, in OptiMEM (Gibco BRL) containing 10% fetal calf serum (FCS, GIBCO-BRL). The cell density for the assay was approx. 1×10^6/ml. The PNA-6 (10 μM) was incubated with the cells in 24-well plates. After incubating at 37° C. and under 5% CO2 for 96 hours, the cell density was determined. Mean values for the cell density were determined from 3 individual wells at a given PNA concentration. […] After >4 days of incubation, the inhibition brought about by PNA-6 was greater than that brought about by a corresponding phosphorothioate oligonucleotide.

| Substance | Tm (DNA) (complementary DNA) [°C] | Tm (RNA) (complementary RNA) [°C] | degree of binding towards complementary DNA and RNA compared with the uncharged PNA (reference substance) (complementary DNA) | cell uptake by fluorescence microscopy, compared with the PNA with no hexadecyl radical (COS cells) | inhibition of proliferation compared with a corresponding phosphorothioate oligonucleotide [1] |
| --- | --- | --- | --- | --- | --- |
| Ac-HN-tat tcc gtc at-hex [Reference, reference compound] | 41.9 | 56.6 |  |  |  |
| C16-p-t(oeg) at tcc gtc at-aminohexyl-p-fluorescein [PNA-6] | 44.1 | 56.9 | equally good or better degree of binding | taken up more efficiently | greater |
| p-t(oeg) at tcc gtc at-aminohexyl-p-fluorescein [PNA-5] | 41.8 | 56.9 | equally good or better degree of binding |  |  |
